To fix the notation:
B1: Heterologously expressed subunit Nqo16 (ttha1528 gene), His-tagged (natural protein, T. thermophilus HB8, UniProt Q5SI52 1-131, looked up)
chain: MVRVGMRAAPRVSLEALKAALGGLKLSEAKVYLITDWQDKRDQARYALLLHTGKKDLLVPDAFGPAFPGGEEALSELVGLLLAQGARRFYEAVVSPGEMTALLDLPPEELLKRVMAIANPTDPGIYLKRAA
notes: reverse primer with the stop codon) and cloned into pet16b; Full length is read from the printed primers (start codon in the NdeI site to the stop codon); also called His-tagged Nqo16; source: E. coli BL21(DE3), purified (heat treatment 70 °C, Ni-NTA)
B2: Complex I subunit Nqo10 (Thermus thermophilus) (natural protein, T. thermophilus HB8, UniProt Q56225 1-176, looked up)
chain: MSLLEGLALFLLLLSGVLVVTLRNAIHAALALILNFLVLAGVYVALDARFLGFIQVIVYAGAIVVLFLFVIMLLFAAQGEIGFDPLVRSRPLAALLALGVAGILAAGLWGLDLAFTQDLKGGLPQALGPLLYGDWLFVLLAVGFLLMAATVVAVALVEPGKASRAKEAEKREEVAR
notes: Nqo10, core subunit of the membrane domain of respiratory complex I, Thermus thermophilus HB8; Endogenous subunit inside the crystallised intact complex; source: purified from T. thermophilus HB8 cells as part of intact complex I (anion exchange, cation exchange, gel filtration)
B3: Complex I subunit Nqo6 (Thermus thermophilus) (natural protein, T. thermophilus HB8, UniProt Q56218 1-181, looked up)
chain: MALKDLFERDVQELEREGILFTTLEKLVAWGRSNSLWPATFGLACCAIEMMASTDARNDLARFGSEVFRASPRQADVMIVAGRLSKKMAPVMRRVWEQMPDPKWVISMGACASSGGMFNNYAIVQNVDSVVPVDVYVPGCPPRPEALIYAVMQLQKKVRGQAYNERGERLPPVAAWKRTRG
notes: Nqo6, core subunit of the peripheral arm of respiratory complex I, Thermus thermophilus HB8; Endogenous subunit inside the crystallised intact complex; source: purified from T. thermophilus HB8 cells as part of intact complex I (anion exchange, cation exchange, gel filtration)
B4: Complex I subunit Nqo8 (Thermus thermophilus) (natural protein, T. thermophilus HB8, UniProt Q60019 1-365, looked up)
chain: MTWSYPVDPYWMVALKALLVVVGLLTAFAFMTLIERRLLARFQVRMGPNRVGPFGLLQPLADAIKSIFKEDIVVAQADRFLFVLAPLISVVFALLAFGLIPFGPPGSFFGYQPWVINLDLGILYLFAVSELAVYGIFLSGWASGSKYSLLGSLRSSASLISYELGLGLALLAPVLLVGSLNLNDIVNWQKEHGWLFLYAFPAFLVYLIASMAEAARTPFDLPEAEQELVGGYHTEYSSIKWALFQMAEYIHFITASALIPTLFLGGWTMPVLEVPYLWMFLKIAFFLFFFIWIRATWFRLRYDQLLRFGWGFLFPLALLWFLVTALVVALDLPRTYLLYLSALSFLVLLGAVLYTPKPARKGGGA
notes: Nqo8, core subunit of the membrane domain of respiratory complex I, Thermus thermophilus HB8; Endogenous subunit inside the crystallised intact complex; source: purified from T. thermophilus HB8 cells as part of intact complex I (anion exchange, cation exchange, gel filtration)

For assay [1], the target named is T1, T. thermophilus complex I (quinone site, Q-site) (Thermus thermophilus, UniProt Q56218+Q56220+Q60019).
T1 construct: gene nqo4; native intact complex purified from T. thermophilus HB8 membranes in TDM; 16 subunits, 550 kDa; for crystals recombinant His-tagged Nqo16 (E. coli) was added; activity preparation has sub-stoichiometric Nqo16; with NADH-quinone oxidoreductase subunit 1; NADH-quinone oxidoreductase subunit 2; NADH-quinone oxidoreductase subunit 3; NADH-quinone oxidoreductase subunit 5; NADH-quinone oxidoreductase subunit 7; NADH-quinone oxidoreductase subunit 9; NADH-quinone oxidoreductase subunit 10; NADH-quinone oxidoreductase subunit 11; NADH-quinone oxidoreductase subunit 12; NADH-quinone oxidoreductase subunit 13; NADH-quinone oxidoreductase subunit 14; NADH-quinone oxidoreductase subunit 15; NADH-quinone oxidoreductase subunit 16
Briefly: NADH:DQ oxidoreductase activity, absorbance at […] nm. The class given is biochemical.

The target of assay [2] is T1, T. thermophilus complex I (quinone site, Q-site). Briefly: biochemical. Further details: NADH:decylubiquinone oxidoreductase activity of purified complex I, NADH absorbance at 340 nm, 50 °C. As for the experimental part: Complex I activity was measured at 50 °C with DQ as an electron acceptor. To a 2 mL quartz cuvette containing DQ assay buffer (50 mM Bis–Tris pH 6.0, 25 mM NaCl, 2 mM CaCl2), 0.25 mg mL^−1 asolectin (Fluka), 8 μg mL^−1 complex I protein, and 100 μM DQ were added. The sample was incubated for 5 min whilst stirred at 400 rpm, to allow for the equilibration of the protein/DQ/lipid/detergent mixture. The reaction was started by adding 100 μM NADH and the change in absorbance was followed at 340 nm, over 30 s under constant stirring. Specific enzyme activity was calculated in μmol NADH oxidized mg^−[…]. When required, inhibitors of complex I were added after DQ, prior to the 5-min incubation period. Lipids were prepared by mixing asolectin in a small volume of chloroform (1 mL) before evaporating the solvent under a stream of nitrogen gas, and were resuspended in 1% CHAPS to a final concentration of 5 mg mL^−1 before use. […] IC50’s for a range of common complex I inhibitors are listed in the Supplementary Table 3. […] Crystal structures of complex I with bound DQ and Q-like inhibitors also show a rotation of PA, like that observed in MJ–MN transition. However, its degree of torsion depends strongly on the Q-ligand, with DQ introducing the largest conformational change (Supplementary Fig. 7d, e). All Q-like ligands studied here display a similar pattern of interactions at the deepest end of the Q-cavity, with the headgroup about 12 Å away from cluster N2 (Fig. 4). A shared feature between all ligands bound in the Q-site is a hydrogen bond interaction of a ketone group from the quinone ring with the conserved and essential for complex I activity Y87_4[16],[36]. Other key residues, such as H38_4 from the key β1–β2 loop (33-QHPSTHG-39) in Nqo4 and M51_6, also contribute to the stabilization of the quinone ring, while secondary residues are involved specifically in the binding of each ligand (Fig. 4 and Supplementary Fig. 2). […] In the case of [compound left out], H38_4 stabilizes its outer ether group, while M51_6 interacts with the oxygen in the furanose ring (Fig. 4c). The distal nitrobenzene moiety is surrounded by both charged and nonpolar residues that, despite the lack of direct interaction, might form a suitable pocket for its accommodation.

The target of assay [3] is T2, Intact complex I (NADH:ubiquinone oxidoreductase) purified from Thermus thermophilus, the form without Nqo16 (T. thermophilus HB8, UniProt Q56222 1-438; Q56221 1-181; Q56223 1-783; Q56220 1-409; Q56219 1-207; Q56218 …).
T2 construct: Nqo1, complex I subunit, Thermus thermophilus HB8; Nqo2, complex I subunit, Thermus thermophilus HB8; Nqo3, complex I subunit, Thermus thermophilus HB8; Nqo4, complex I subunit, Thermus thermophilus HB8; Nqo5, complex I subunit, Thermus thermophilus HB8; Nqo6, complex I subunit, Thermus thermophilus HB8; Nqo7, complex I subunit, Thermus thermophilus HB8; Nqo8, complex I subunit, Thermus …
Briefly: crystal structure; intact complex I purified from T. thermophilus mixed with purified recombinant Nqo16 (1:0.2 CXI:Nqo16), sitting drop at 23 °C, 100 mM Bis-Tris pH 6.0, 19-25% PEG 4000, 100 mM KCl, 100 mM glutaric acid, detergents; native crystals and crystals soaked or co-crystallised with NADH, decylubiquinone, piericidin A, aureothin or pyridaben. Conditions: both partners purified.

The target of assay [4] is B4. The description is as above. Particulars: both partners purified.
For assay [5], the target named is T3, Complex I subunit Nqo4 (Thermus thermophilus) (T. thermophilus HB8, UniProt Q56220 1-409).
T3 construct: Nqo4, core subunit of the peripheral arm of respiratory complex I, Thermus thermophilus HB8; Endogenous subunit inside the crystallised intact complex; source: purified from T. thermophilus HB8 cells as part of intact complex I (anion exchange, cation exchange, gel filtration)
T3 sequence (looked up): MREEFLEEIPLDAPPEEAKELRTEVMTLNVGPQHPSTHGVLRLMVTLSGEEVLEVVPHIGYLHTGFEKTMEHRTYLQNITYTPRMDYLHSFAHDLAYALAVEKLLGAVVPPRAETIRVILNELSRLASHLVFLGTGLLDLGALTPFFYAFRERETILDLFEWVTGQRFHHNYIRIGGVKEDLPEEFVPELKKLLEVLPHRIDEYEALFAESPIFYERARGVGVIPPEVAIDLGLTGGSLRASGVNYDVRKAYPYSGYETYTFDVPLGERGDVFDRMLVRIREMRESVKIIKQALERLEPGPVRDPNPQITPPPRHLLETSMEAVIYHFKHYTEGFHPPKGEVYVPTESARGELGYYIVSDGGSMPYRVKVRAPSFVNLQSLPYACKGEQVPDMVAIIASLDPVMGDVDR
Described as above. Conditions: both partners purified.

T1 sequence (Q56222 whole entry partner, one chain of several): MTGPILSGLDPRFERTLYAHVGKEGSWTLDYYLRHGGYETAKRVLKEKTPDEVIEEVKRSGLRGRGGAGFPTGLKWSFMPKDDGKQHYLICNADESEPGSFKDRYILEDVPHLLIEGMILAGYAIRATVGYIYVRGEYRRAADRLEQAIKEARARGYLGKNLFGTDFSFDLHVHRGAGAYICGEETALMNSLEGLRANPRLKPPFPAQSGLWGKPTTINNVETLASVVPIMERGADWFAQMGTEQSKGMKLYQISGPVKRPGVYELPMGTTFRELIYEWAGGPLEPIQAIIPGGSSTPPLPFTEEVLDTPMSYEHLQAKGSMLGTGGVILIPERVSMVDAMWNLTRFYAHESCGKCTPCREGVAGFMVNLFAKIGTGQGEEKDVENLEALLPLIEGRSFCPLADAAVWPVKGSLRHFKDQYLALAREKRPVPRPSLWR

Regarding `COc1oc([C@H]2C/C(=C/C(C)=C/c3ccc([N+](=O)[O-])cc3)CO2)c(C)c(=O)c1C` [AUT, aureothin], the half-inhibitory concentration (IC50) – broadly, the concentration needed to halve the response being measured – in assay [1] (read-out: IC50) was 10.3 nM.

`C/C=C(\C)[C@H](O)[C@H](C)/C=C(C)/C=C/C/C(C)=C/Cc1nc(OC)c(OC)c(O)c1C` [PIE, piericidin A] displayed an IC50 in assay [1] of 31 nM.

Consider `C/C=C(C)/C=C/C=C/[C@H](OC)[C@@H](C)[C@@H](OC)[C@@H](C)CCc1oc2c(O)c(OC)cc(OC)c2c(=O)c1C` [Stigmatellin], for which the IC50 in assay [2] (read-out: IC50 (µM in cell)) is 60 µM.

In the case of `CC(C)(C)c1ccc(CSc2cnn(C(C)(C)C)c(=O)c2Cl)cc1` [PYR, pyridaben], in assay [1] (read-out: IC50), the 50% inhibitory concentration (IC50) worked out at 15.6 nM.

As to `COc1cc(CNC(=O)CCCC/C=C/C(C)C)ccc1O` [Capsaicin], in assay [2] (read-out: IC50 (µM in cell)), the IC50 was determined as 197 µM.

On to `CCCCCCCCCC[C@H](O)[C@H]1CC[C@@H]([C@@H]2CC[C@H]([C@H](O)CCCCCCCCCC[C@@H](O)CC3=C[C@H](C)OC3=O)O2)O1` [Rolliniastatin-1], for which the IC50 in assay [2] (read-out: IC50 (nM in cell)) came to 0.93 µM.

Consider `Cc1nn(C)c(Oc2ccccc2)c1/C=N/OCc1ccc(C(=O)OC(C)(C)C)cc1` [Fenpyroximate], for which the IC50 in assay [2] (read-out: IC50 (nM in cell)) is 0.63 µM.

For the molecule `C=C(C)[C@H]1Cc2c(ccc3c2O[C@@H]2COc4cc(OC)c(OC)cc4[C@@H]2C3=O)O1` [rotenone], the half-inhibitory concentration (IC50) in assay [1] (read-out: IC50) is 190 nM.

With B1, the binding result in assay [3] was “binds”.

In the case of B2, in assay [4], the binding result was “binds”.

Regarding B3, the binding result in assay [4] is given as “binds”.

As to B4, the binding result in assay [5] is given as “binds”.
